Data taken from US20100286136A1, “DIHYDRONAPHTHYRIDINYL AND RELATED COMPOUNDS FOR USE IN TREATING OPHTHALMOLOGICAL DISORDERS” (priority 2009, published 2010).

Molecular target: T1, CCR2b (Homo sapiens, UniProt P41597)
T1 construct: host or cells: AequoScreen CCR2b cells
T1 sequence (P41597 1-360 isoform P41597-2): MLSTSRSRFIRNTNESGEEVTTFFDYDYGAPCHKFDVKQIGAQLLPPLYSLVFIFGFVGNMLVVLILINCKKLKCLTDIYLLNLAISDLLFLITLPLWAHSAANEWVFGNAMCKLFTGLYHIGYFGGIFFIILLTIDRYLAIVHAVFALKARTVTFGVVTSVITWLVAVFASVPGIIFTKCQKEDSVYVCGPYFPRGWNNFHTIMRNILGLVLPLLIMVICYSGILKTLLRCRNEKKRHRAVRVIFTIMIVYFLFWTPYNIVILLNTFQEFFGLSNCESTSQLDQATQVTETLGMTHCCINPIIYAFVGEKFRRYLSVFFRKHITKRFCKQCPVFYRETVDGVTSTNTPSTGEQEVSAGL
Assay: AequoScreen CCR2b calcium flux assay, antagonist mode against reference agonist MCP-1
Type: cell-based
Conditions: AequoScreen CCR2b (FAST-060A) cells; inhibition of reference agonist MCP-1 at its EC80; read-out: IC50 (μM) Ca^++flux
Procedure: The biological activity of the compounds described herein can be evaluated using assays known in the art, such as the AequoScreen™ assay.
AequoScreen™ CCR2b (FAST-060A) cells grown to mid-log phase in culture media without antibiotics are detached with PBS-EDTA, centrifuged and resuspended in assay buffer (DMEM/HAM's F12 with HEPES, without phenol red+0.1% BSA protease free) at a concentration of 1×10^6 cells/mL. Cells are incubated at room temperature for at least 4 hours with coelenterazine h. Dose response curves are performed before testing. The reference agonist is MCP-1.
For agonist testing, 50 μL of cell suspension is mixed with 50 μL of test compound in a 96-well plate. The resulting emission of light is recorded using a Hamamatsu Functional Drug Screening System 6000 (FDSS 6000).
Following an incubation of 15 minutes after the first injection, 100 μL of the resulting cell suspension containing the test compound is mixed with 100 μL of the reference agonist in the 96 well test plate. The resulting emission of light is recorded using the same luminometer as for agonist testing.
Agonist activity of a test compound can be expressed as a percentage of the activity of the reference agonist at its EC100 concentration. Antagonist activity of a test compound can be expressed as a percentage of the inhibition of reference agonist activity at its EC80 concentration.

O=C(N1CCc2ncc(C(F)(F)F)cc2C1)C1(CC2CC2)CCN(Cc2ccc3[nH]ncc3c2)C1 (stereo not drawn) [Example 17, (1-((1H-Indazol-5-yl)methyl)-3-(cyclopropylmethyl)pyrrolidin-3-yl)(3-(trifluoromethyl)-7,8-dihydro-1,6-naphthyridin-6(5H)-yl)methanone]
IC50: > 1 µM

Cn1c(=O)ccc2cc(CN3CCC(CC4CC4)(C(=O)N4CCc5ncc(C(F)(F)F)cc5C4)C3)ccc21 (stereo not drawn) [Example 22, 6-((3-(Cyclopropylmethyl)-3-(3-(trifluoromethyl)-5,6,7,8-tetrahydro-1,6-naphthyridine-6-carbonyl)pyrrolidin-1-yl)methyl)-1-methylquinolin-2(1H)-one]
IC50: > 1 µM

Cn1c(=O)oc2ccc(CN3CCC(CC4CC4)(C(=O)N4CCc5ncc(C(F)(F)F)cc5C4)C3)cc21 (stereo not drawn) [Example 23, 5-((3-(Cyclopropylmethyl)-3-(3-(trifluoromethyl)-5,6,7,8-tetrahydro-1,6-naphthyridine-6-carbonyl)pyrrolidin-1-yl)methyl)-3-methylbenzo[d]oxazol-2(3H)-one]
IC50: < 0.2 µM

CC(C)CC1(C(=O)N2CCc3ncc(C(F)(F)F)cc3C2)CCN(Cc2ccc3oc(=O)n(C)c3c2)C1 (stereo not drawn) [Example 24, 5-((3-Isobutyl-3-(3-(trifluoromethyl)-5,6,7,8-tetrahydro-1,6-naphthyridine-6-carbonyl)pyrrolidin-1-yl)methyl)-3-methylbenzo[d]oxazol-2(3H)-one]
IC50: < 0.2 µM

COCC1(C(=O)N2CCc3ncc(C(F)(F)F)cc3C2)CCN(Cc2ccc3ccc(=O)n(C)c3c2)C1 (stereo not drawn) [Example 25, 7-((3-(Methoxymethyl)-3-(3-(trifluoromethyl)-5,6,7,8-tetrahydro-1,6-naphthyridine-6-carbonyl)pyrrolidin-1-yl)methyl)-1-methylquinolin-2(1H)-one]
IC50: < 0.2 µM

COCC1(C(=O)N2CCc3ncc(C(F)(F)F)cc3C2)CCN(Cc2ccc3sc(=O)n(C)c3c2)C1 (stereo not drawn) [Example 28, 5-((3-(Methoxymethyl)-3-(3-(trifluoromethyl)-5,6,7,8-tetrahydro-1,6-naphthyridine-6-carbonyl)pyrrolidin-1-yl)methyl)-3-methylbenzo[d]thiazol-2(3H)-one]
IC50: < 0.2 µM

COCC1(C(=O)N2CCc3ncc(C(F)(F)F)cc3C2)CCN(C(C)c2ccc3c(c2)n(C)c(=O)n3C)C1 (stereo not drawn) [Example 29, 5-(1-(3-(Methoxymethyl)-3-(3-(trifluoromethyl)-5,6,7,8-tetrahydro-1,6-naphthyridine-6-carbonyl)pyrrolidin-1-yl)ethyl)-1,3-dimethyl-1H-benzo[d]imidazol-2(3H)-one]
IC50: < 0.2 µM

COCC1(C(=O)N2CCc3ncc(C(F)(F)F)cc3C2)CCN(Cc2ccc3c(c2)N(C)C(=O)CO3)C1 (stereo not drawn) [Example 32, 6-((3-(Methoxymethyl)-3-(3-(trifluoromethyl)-5,6,7,8-tetrahydro-1,6-naphthyridine-6-carbonyl)pyrrolidin-1-yl)methyl)-4-methyl-2H-benzo[b][1,4]oxazin-3(4H)-one]
IC50: < 0.2 µM

COCC1(C(=O)N2CCc3ncc(C(F)(F)F)cc3C2)CCN(C(C)c2ccc3c(c2)N(C)C(=O)CO3)C1 (stereo not drawn) [Example 33, 6-(1-(3-(Methoxymethyl)-3-(3-(trifluoromethyl)-5,6,7,8-tetrahydro-1,6-naphthyridine-6-carbonyl)pyrrolidin-1-yl)ethyl)-4-methyl-2H-benzo[b][1,4]oxazin-3(4H)-one]
IC50: < 0.2 µM

COCC1(C(=O)N2CCc3ncc(C(F)(F)F)cc3C2)CCN(C(C)c2ccc3oc(=O)n(C)c3c2)C1 (stereo not drawn) [Example 34, 5-(1-(3-(Methoxymethyl)-3-(3-(trifluoromethyl)-5,6,7,8-tetrahydro-1,6-naphthyridine-6-carbonyl)pyrrolidin-1-yl)ethyl)-3-methylbenzo[d]oxazol-2(3H)-one]
IC50: < 0.2 µM

COCC1(C(=O)N2CCc3ncc(C(F)(F)F)cc3C2)CCN(C2CCC(O)(C3CC3)CC2)C1 (stereo not drawn) [Example 35]
IC50: 0.2 to 1 µM

COCC1(C(=O)N2CCc3ncc(C(F)(F)F)cc3C2)CCN(Cc2cc3c(ccc(=O)n3C)cc2Cl)C1 (stereo not drawn) [Example 36, 6-Chloro-7-((3-(methoxymethyl)-3-(3-(trifluoromethyl)-5,6,7,8-tetrahydro-1,6-naphthyridine-6-carbonyl)pyrrolidin-1-yl)methyl)-1-methylquinolin-2(1H)-one]
IC50: 0.2 to 1 µM

COCC1(C(=O)N2CCc3ncc(C(F)(F)F)cc3C2)CCN(Cc2cc3c(cc2Cl)oc(=O)n3C)C1 (stereo not drawn) [Example 37, 6-Chloro-5-((3-(methoxymethyl)-3-(3-(trifluoromethyl)-5,6,7,8-tetrahydro-1,6-naphthyridine-6-carbonyl)pyrrolidin-1-yl)methyl)-3-methylbenzo[d]oxazol-2(3H)-one]
IC50: < 0.2 µM

COCC1(C(=O)N2CCc3ncc(C(F)(F)F)cc3C2)CCN(Cc2ccc3c(c2)n(C)c(=O)n3C)C1 (stereo not drawn) [Example 38, 5-((3-(Methoxymethyl)-3-(3-(trifluoromethyl)-5,6,7,8-tetrahydro-1,6-naphthyridine-6-carbonyl)pyrrolidin-1-yl)methyl)-1,3-dimethyl-1H-benzo[d]imidazol-2(3H)-one]
IC50: > 1 µM

COCC1(C(=O)N2CCc3ncc(C(F)(F)F)cc3C2)CCN(Cc2ccc3oc(=O)n(C)c3c2)C1 (stereo not drawn) [Example 39, 5-((3-(Methoxymethyl)-3-(3-(trifluoromethyl)-5,6,7,8-tetrahydro-1,6-naphthyridine-6-carbonyl)pyrrolidin-1-yl)methyl)-3-methylbenzo[d]oxazol-2(3H)-one]
IC50: < 0.2 µM

CCOCC1(C(=O)N2CCc3ncc(C(F)(F)F)cc3C2)CCN(Cc2ccc3oc(=O)n(C)c3c2)C1 (stereo not drawn) [Example 45, 5-((3-(Ethoxymethyl)-3-(3-(trifluoromethyl)-5,6,7,8-tetrahydro-1,6-naphthyridine-6-carbonyl)pyrrolidin-1-yl)methyl)-3-methylbenzo[d]oxazol-2(3H)-one]
IC50: < 0.2 µM

COCC1(C(=O)N2CCc3ccc(C(F)(F)F)cc3C2)CCN(Cc2ccc3oc(=O)n(C)c3c2)C1 (stereo not drawn) [Example 46, 5-((3-(methoxymethyl)-3-(7-(trifluoromethyl)-1,2,3,4-tetrahydroisoquinoline-2-carbonyl)pyrrolidin-1-yl)methyl)-3-methylbenzo[d]oxazol-2(3H)-one]
IC50: < 0.2 µM

CC(C)C1(C(=O)N2CCc3ncc(C(F)(F)F)cc3C2)CCN(Cc2ccc3oc(=O)n(C)c3c2)C1 (stereo not drawn) [Example 47, 5-((3-isopropyl-3-(3-(trifluoromethyl)-5,6,7,8-tetrahydro-1,6-naphthyridine-6-carbonyl)pyrrolidin-1-yl)methyl)-3-methylbenzo[d]oxazol-2(3H)-one]
IC50: < 0.2 µM

Cn1c(=O)oc2ccc(CN3CCC(CC#N)(C(=O)N4CCc5ncc(C(F)(F)F)cc5C4)C3)cc21 (stereo not drawn) [Example 48, 2-(1-((3-methyl-2-oxo-2,3-dihydrobenzo[d]oxazol-5-yl)methyl)-3-(3-(trifluoromethyl)-5,6,7,8-tetrahydro-1,6-naphthyridine-6-carbonyl)pyrrolidin-3-yl)acetonitrile]
IC50: 0.2 to 1 µM

Cn1c(=O)oc2ccc(CN3CCC(CO)(C(=O)N4CCc5ncc(C(F)(F)F)cc5C4)C3)cc21 (stereo not drawn) [Example 49, 5-((3-(Hydroxymethyl)-3-(3-(trifluoromethyl)-5,6,7,8-tetrahydro-1,6-naphthyridine-6-carbonyl)pyrrolidin-1-yl)methyl)-3-methylbenzo[d]oxazol-2(3H)-one]
IC50: > 1 µM

CC(C)CC1(C(=O)N2CCc3ncc(C(F)(F)F)cc3C2)CCN(Cc2ccc3c(c2)sc(=O)n3C)CC1 [Example 58, 6-((4-Isobutyl-4-(3-(trifluoromethyl)-5,6,7,8-tetrahydro-1,6-naphthyridine-6-carbonyl)piperidin-1-yl)methyl)-3-methylbenzo[d]thiazol-2(3H)-one]
IC50: > 1 µM
